# From patent US20260240841A1, “COMBINATION OF HPK1 INHIBITOR AND AXL INHIBITOR IN CANCER THERAPY” (BOARD OF REGENTS, THE UNIVERSITY OF TEXAS SYSTEM, priority 2023, published 2026)
# How the values were obtained:
# [1] = system: orthotopic KPC-Luc pancreatic tumors; test: Orthotopic KPC-Luc pancreatic cancer model treated with MRTX1133; assay type: in vivo, mouse; conditions: for tumor weight: 25 mg/kg twice daily for ten days, weighed seven days after completion, FIG. 10
# Description: (§1) For sub-cutaneous xenograft studies, the C57BL/6 female or male mice aged 5-7 weeks (Jackson Labs) were used. 1×10^6 KPC-Luc cells or 2×10^5 B16F10 melanoma cells were injected into the dorsal region of the wild type (WT) or HPK1-mice. Animals were imaged using the IVIS Spectrum, PerkinElmer and Bruker ICON MRI at 3 and 10 days after successful implantation of KPC-Luc cells. Only mice with similar tumor volume (~150 mm^3) were used for treatment studies. These experiments were randomized. […] Mice were euthanized for tumor collection once tumor volume was approximately ~1000 mm^3. For orthotopic studies, 0.5×10^6 KPC-Luc cells were implanted orthotopically into WT C57BL/6 mice and/or HPK1^−/− mice pancreas. Bioluminescence imaging with the IVIS Spectrum (Perkin Elmer) was performed after intraperitoneal injection of 1.5 mg of D-luciferin (PerkinElmer). After image acquisition, the Living Image 4.7 software (PerkinElmer) was used for analysis of images. Therapy was initiated at day 10 post tumor cell injection. All mice were sacrificed on Day 35 for survival study or otherwise labeled in the Figures.
# (§2) To examine the effects of pharmacological inhibition of Axl, Kras, and HPK1 with or without Anti-41BB/CD137 on tumor growth, Axl inhibitor (Bemcentinib MedChem Express) was dosed at 10 mg/kg/day for intraperitoneal injection (IP). HPK1-IN-7 (HPK1 inhibitor #1 MedChem Express) was dosed at 20 mg/kg/day orally, GNE1858 (HPK1 inhibitor #2 MedChem Express) was dosed at 10 mg/kg/day orally. KRAS^G12D inhibitor (MRTX1133, MedChem Express) was dosed at 25 mg/Kg twice daily for intraperitoneal injection. Anti-41BB (clone LOB12.3, BioXCell, BE0169) antibody and its corresponding isotype IgG controls were intraperitoneally administered at 200 μg per injection for three times per week. The duration of treatment was 10 days. Tumor size was measured every other day using the methods as previously described.
# To further evaluate the association, tumor size was determined in mice treated with MRTX1133. […]
# [2] = system: mouse PDAC models; conditions: cited from earlier work
# [3] = system: orthotopic xenograft tumors of KPC-Luc cells; test: Multicolor flow cytometry of intra-tumoral hematopoietic cells from KPC-Luc xenograft tumors; assay type: in vivo, mouse
# Description: For flow cytometry studies, orthotopic xenograft tumors of KPC-Luc cells from the HPK1−/− or wild type control were digested in digestion buffer (1 mg/mL collagenase IV and 10 U/mL DNase I in Dulbecco's Modified Eagle Medium (DMEM)) at 37° C. for 30 minutes. After thorough mixing, the samples were pushed through a 70-μm cell strainer and washed with 40 ml DMEM without fetal bovine serum (FBS), The digested cells were re-suspended in 37 % Percoll and overlaid on top of the same volume of 70% Percoll. After centrifugation at 800 g for 20 minutes with break off, the lymphocytes were isolated from the interface and rinsed with PBS. The cells were first stained by Zombie UV, followed by incubation in a cocktail comprising the following antibodies in cell staining buffer: anti-CD45, anti-CD38, anti-B220, anti-CD11b, anti-F4/80, anti-Ly6C, anti-Ly6G, anti-CD4, anti-IA/IE, and anti-CD8g. After washing, the stained cells were submitted for multiple-color flow cytometry. The results were processed using FlowJo software.
# Following tumor xenograft imaging, the tumors were excised from the mice and subsequently prepared for flow cytometry as described above.
# [4] = system: KPC-Luc cells; test: KPC-Luc tumor growth in WT C57BL/6 mice under Axl inhibitor, HPK1 inhibitor, CD137 antibody and combinations; assay type: in vivo, mouse; conditions: treated 10 days
# Description: as §1
# To examine the effects of pharmacological inhibition of Axl, Kras, and HPK1 with or without Anti-41BB/CD137 on tumor growth, Axl inhibitor (Bemcentinib MedChem Express) was dosed at 10 mg/kg/day for intraperitoneal injection (IP). HPK1-IN-7 (HPK1 inhibitor #1 MedChem Express) was dosed at 20 mg/kg/day orally, GNE1858 (HPK1 inhibitor #2 MedChem Express) was dosed at 10 mg/kg/day orally. […] Tumor size was measured every other day using the methods as previously described.
# Tumors were grown in wild-type mice, and treatment was performed as described above. Following treatment, tumors were excised from the mice and both tumor volume and tumor weight were measured.
# To further study the synergistic effects of the combination therapy, tumors were grown in wild-type mice and treatment was performed as described above. Following treatment, tumors were excised from the mice and tumor weight was evaluated. […]
# [5] = system: B16F10 melanoma cells; test: Subcutaneous B16F10 melanoma xenograft model; assay type: in vivo, mouse; conditions: for tumor weight: FIG. 12B
# Description: as §1, §2
# To evaluate the therapeutic effect of an Axl inhibitor, bemcentinib, on melanoma, subcutaneous tumors of subcutaneous melanoma xenograft model of B16F10 cells in HPK1 knockout mice and wild type mice were treated with 10 mg/kg/day bemcentinib by intraperitoneal injection (IP) twice daily for 10 days. The tumor volumes (FIG. 12A) and tumor weight (FIG. 12B) were measured at 12 days after the completion of treatment.
# Subcutaneous melanoma xenograft tumors of B16F10 cells were grown in wild-type mice, and treatment was performed as described above. Following treatment, tumors were excised from the mice at day 12 after completion of therapy and both tumor volume and tumor weight were measured.
# [6] = system: orthotopic xenograft tumors of KPC-Luc cells; test: IVIS bioluminescence imaging of orthotopic KPC-Luc xenograft tumors treated with Axl inhibitor; assay type: in vivo, mouse; conditions: imaged 17 days post implantation with KPC-Luc cells
# Description: as §1, with “All mice were sacrificed on Day 35 for survival study or otherwise labeled in the Figures.” left out
# To examine the effects of pharmacological inhibition of Axl, Kras, and HPK1 with or without Anti-41BB/CD137 on tumor growth, Axl inhibitor (Bemcentinib MedChem Express) was dosed at 10 mg/kg/day for intraperitoneal injection (IP). […] Tumor size was measured every other day using the methods as previously described. […]
# [7] = system: pancreatic cancer; conditions: Ludwig et al.; cited from earlier work
smiles,measurement,setting,value
C#Cc1c(F)ccc2cc(O)cc(-c3ncc4c(N5CC6CCC(C5)N6)nc(OC[C@@]56CCCN5C[C@H](F)C6)nc4c3F)c12 [MRTX1133],tumor weight,[1]; HPK1 knockout mice,significant decrease in tumor weight
same,tumor weight,[1]; wild type mice,slight decrease in tumor weight
same,response of tumor size shown by luminescence,"[1]; wild-type mice versus HPK1 knockout mice, 25 mg/kg IP twice daily, imaged 7 days after treatment, FIG. 9",less responsive than the HPK1 knockout mice
same,tumor growth,[2],shrink tumors or halt the growth
Nc1nc(Nc2ccc3c(c2)CC[C@@H](N2CCCC2)CC3)nn1-c1cc2c(nn1)-c1ccccc1CCC2 [bemcentinib],CD3+ T cells and CD8+ T cells in the tumor microenvironment,"[3]; HPK1 knockout mice, FIG. 4B",increased
same,infiltration of macrophages and myeloid suppressor cells,"[3]; HPK1 knockout mice, tumor microenvironment, FIG. 4B",decreased the infiltration
same,"number or function of B cells, CD3+ cells, CD4+ T cells, CD8+ T cells, CD11b+ cells, M-MDSC's, PMN-MDSC's, macrophages, neutrophils","[3]; wild-type mice, intra-tumoral, FIG. 4A",did not increase or decrease
same,tumor volume,"[4]; measured 15 days after completion of treatment, FIG. 6A",did not significantly decrease
same,tumor weight compared to control (in words),"[4]; weighed 12 days after completion, control about 0.6 grams, FIG. 7",only minimally reduced
same,tumor weight compared to control,"[4]; weighed 15 days after completion of treatment, FIG. 6B",reduced the tumor weight to a small degree
same,tumor volume,"[5]; HPK1 knockout mice, 10 mg/kg/day IP for 10 days, 12 days after completion, FIG. 12A",significant decrease
same,tumor weight,"[5]; HPK1 knockout mice, 10 mg/kg/day IP for 10 days, 12 days after completion",significant decrease
same,tumor volume,"[5]; wild type mice, 10 mg/kg/day IP for 10 days, 12 days after completion, FIG. 12A",slight decrease
same,tumor weight,"[5]; wild type mice, 10 mg/kg/day IP for 10 days, 12 days after completion",slight decrease
same,tumor volume,"[5]; wild-type mice, inhibitor comparison, treated 10 days, day 12 after completion, FIG. 13A",did not significantly decrease
same,tumor weight compared to control,"[5]; wild-type mice, inhibitor comparison, treated 10 days, day 12 after completion, FIG. 13B",reduced the tumor weight to a small degree
same,tumor growth (luminescence),"[6]; HPK1 knockout mice, FIG. 3B",inhibited the growth of the tumor
same,tumor volume (luminescence),"[6]; wild type mice, FIG. 3A",little to no decrease in the tumor volume
Nc1nc(Nc2ccc3c(c2)CC[C@@H](N2CCCC2)CC3)nn1-c1cc2c(nn1)-c1ccccc1CCC2 [BGB324],aggressiveness of pancreatic cancer,[7],inhibits the aggressiveness of pancreatic cancer
same,sensitivity of pancreatic cancer cells to gemcitabine,[7],sensitizes pancreatic cancer cells to gemcitabine
same,tumor immune microenvironment,[7],induces an immune stimulatory microenvironment
